Patent publication US20200331925A1, “HETEROCYCLIC COMPOUNDS FOR THE TREATMENT OF ABNORMAL CELLULAR PROLIFERATION” (G1 Therapeutics, Inc., priority 2018, published 2020)

Legend:
Type in all cases: biochemical
CDK2/Cyclin A = CDK2/Cyclin A (Homo sapiens, UniProt P24941); experiment: CDK2/Cyclin A kinase assay (Nanosyn, Caliper microfluidic); conditions: 12-point dose-response, ATP at Km (50 μM), 3 hr
Procedure: (§1) Selected compounds disclosed herein were tested in kinase assays by Nanosyn (Santa Clara, Calif.) to determine their inhibitory effect on selected CDKs. The assays were performed using microfluidic kinase detection technology (Caliper Assay Platform). The compounds were tested in 12-point dose-response format in singlicate at Kmfor ATP. Phosphoacceptor substrate peptide concentration used was 1 μM for all assays and Staurosporine was used as the reference compound for all assays. Specifics of each assay are as described below: CDK2/Cyclin A: Enzyme concentration: 0.1 nM; ATP concentration: 50 μM; Incubation time: 3 hr.

CDK3/Cyclin E = CDK3/Cyclin E (Homo sapiens, UniProt Q00526); experiment: CDK3/Cyclin E kinase assay (Nanosyn, Caliper microfluidic); conditions: 12-point dose-response, ATP at Km (400 μM), 3 hr
Procedure: as §1, with “CDK3/Cyclin E:” for “CDK2/Cyclin A:”, “1” for “0.1”, “400” for “50”

CDK7/Cyclin H = CDK7/Cyclin H (Homo sapiens, UniProt P50613); experiment: CDK7/Cyclin H kinase assay (Nanosyn, Caliper microfluidic); conditions: 12-point dose-response, ATP at Km (50 μM), 17 hr
CDK7/Cyclin H, sequence (P50613 whole entry): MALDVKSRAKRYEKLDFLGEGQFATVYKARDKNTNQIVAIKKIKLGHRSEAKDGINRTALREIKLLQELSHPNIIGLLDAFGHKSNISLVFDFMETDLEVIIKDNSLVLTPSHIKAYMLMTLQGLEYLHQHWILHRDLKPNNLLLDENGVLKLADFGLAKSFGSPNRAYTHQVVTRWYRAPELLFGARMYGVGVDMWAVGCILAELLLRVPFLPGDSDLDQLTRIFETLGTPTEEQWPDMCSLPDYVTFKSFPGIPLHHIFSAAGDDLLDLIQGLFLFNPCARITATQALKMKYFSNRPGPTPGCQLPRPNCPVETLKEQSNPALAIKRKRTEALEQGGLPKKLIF
CDK7/Cyclin H, sequence (P51946 whole entry partner): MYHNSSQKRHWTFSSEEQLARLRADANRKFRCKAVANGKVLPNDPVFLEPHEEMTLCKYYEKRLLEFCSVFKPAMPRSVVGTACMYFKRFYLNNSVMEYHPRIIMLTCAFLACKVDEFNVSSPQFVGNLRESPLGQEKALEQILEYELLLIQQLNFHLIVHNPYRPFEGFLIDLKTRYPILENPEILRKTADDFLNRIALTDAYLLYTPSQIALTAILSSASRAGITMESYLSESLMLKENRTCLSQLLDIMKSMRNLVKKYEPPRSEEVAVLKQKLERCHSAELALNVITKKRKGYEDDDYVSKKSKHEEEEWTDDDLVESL
CDK7/Cyclin H, sequence (P51948 whole entry partner): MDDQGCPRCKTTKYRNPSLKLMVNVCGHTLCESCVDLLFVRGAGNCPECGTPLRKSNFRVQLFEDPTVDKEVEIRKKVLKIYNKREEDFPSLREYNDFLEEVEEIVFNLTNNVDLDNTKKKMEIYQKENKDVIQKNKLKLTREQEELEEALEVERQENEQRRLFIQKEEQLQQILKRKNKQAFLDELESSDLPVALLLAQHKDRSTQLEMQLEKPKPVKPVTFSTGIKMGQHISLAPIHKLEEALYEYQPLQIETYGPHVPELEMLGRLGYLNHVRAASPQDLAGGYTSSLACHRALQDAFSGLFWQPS
Procedure: as §1, with “CDK7/Cyclin H:” for “CDK2/Cyclin A:”, “10” for “0.1”, “17” for “3”

CDK9/Cyclin T = CDK9/Cyclin T (Homo sapiens, UniProt P50750); experiment: CDK9/Cyclin T kinase assay (Nanosyn, Caliper microfluidic); conditions: 12-point dose-response, ATP at Km (10 μM), 17 hr
Procedure: as §1, with “[…]:” for “CDK2/Cyclin A:”, “5” for “0.1”, “10” for “50”, “17” for “3”

CDK2/Cyclin E = CDK2/Cyclin E (Homo sapiens, UniProt P24941); experiment: CDK2/Cyclin E kinase assay (Nanosyn, Caliper microfluidic); conditions: 12-point dose-response, ATP at Km (100 μM), 3 hr
Procedure: as §1, with “E:” for “A:”, “0.15” for “0.1”, “100” for “50”

CDK1/Cyclin B1 = CDK1/Cyclin B1 (Homo sapiens, UniProt P06493); experiment: CDK1/Cyclin B1 kinase assay (Nanosyn, Caliper microfluidic); conditions: 12-point dose-response, ATP at Km (40 μM), 3 hr
CDK1/Cyclin B1, sequence (P06493 whole entry): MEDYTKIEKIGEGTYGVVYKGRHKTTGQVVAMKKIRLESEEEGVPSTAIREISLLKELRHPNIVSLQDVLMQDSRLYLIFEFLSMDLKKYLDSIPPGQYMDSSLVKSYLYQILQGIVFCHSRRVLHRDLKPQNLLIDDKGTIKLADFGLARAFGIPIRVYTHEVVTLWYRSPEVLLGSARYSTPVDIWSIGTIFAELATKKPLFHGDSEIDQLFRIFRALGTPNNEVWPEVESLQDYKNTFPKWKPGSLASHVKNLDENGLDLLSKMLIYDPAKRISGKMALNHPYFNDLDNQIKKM
CDK1/Cyclin B1, sequence (P14635 whole entry partner): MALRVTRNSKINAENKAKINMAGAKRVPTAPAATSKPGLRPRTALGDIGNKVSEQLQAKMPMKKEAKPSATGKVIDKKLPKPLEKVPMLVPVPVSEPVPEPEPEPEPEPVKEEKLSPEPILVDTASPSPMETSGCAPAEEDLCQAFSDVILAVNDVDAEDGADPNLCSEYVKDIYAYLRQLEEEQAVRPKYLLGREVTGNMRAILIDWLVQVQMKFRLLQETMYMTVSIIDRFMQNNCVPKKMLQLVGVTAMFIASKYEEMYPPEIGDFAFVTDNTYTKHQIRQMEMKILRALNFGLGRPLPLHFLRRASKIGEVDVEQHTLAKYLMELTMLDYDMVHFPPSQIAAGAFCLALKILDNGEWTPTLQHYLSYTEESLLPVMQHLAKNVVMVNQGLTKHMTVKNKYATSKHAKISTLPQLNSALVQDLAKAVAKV
Procedure: as §1, with “CDK1/Cyclin B1:” for “CDK2/Cyclin A:”, “0.08” for “0.1”, “40” for “50”

CDK5/p35 = CDK5/p35 (Homo sapiens, UniProt Q00535); experiment: CDK5/p35 kinase assay (Nanosyn, Caliper microfluidic); conditions: 12-point dose-response, ATP at Km (20 μM), 3 hr
CDK5/p35, sequence (Q00535 whole entry): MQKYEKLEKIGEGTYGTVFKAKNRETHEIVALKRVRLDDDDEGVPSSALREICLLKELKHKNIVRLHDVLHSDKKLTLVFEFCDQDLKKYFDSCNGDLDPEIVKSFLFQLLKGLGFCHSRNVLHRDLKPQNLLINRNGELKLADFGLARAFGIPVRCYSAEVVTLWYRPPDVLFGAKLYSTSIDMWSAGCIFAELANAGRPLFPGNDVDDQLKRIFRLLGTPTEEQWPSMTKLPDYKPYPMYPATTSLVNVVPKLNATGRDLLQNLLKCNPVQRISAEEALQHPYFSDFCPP
CDK5/p35, sequence (Q15078 whole entry partner): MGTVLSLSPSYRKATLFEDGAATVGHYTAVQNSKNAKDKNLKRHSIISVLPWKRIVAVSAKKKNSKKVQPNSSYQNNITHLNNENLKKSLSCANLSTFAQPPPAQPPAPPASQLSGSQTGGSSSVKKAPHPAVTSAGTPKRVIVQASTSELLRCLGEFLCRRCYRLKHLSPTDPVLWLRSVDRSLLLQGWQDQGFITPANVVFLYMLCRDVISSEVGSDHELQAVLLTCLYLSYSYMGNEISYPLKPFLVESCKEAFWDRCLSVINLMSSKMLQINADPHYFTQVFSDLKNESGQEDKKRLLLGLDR
Procedure: as §1, with “CDK5/p35:” for “CDK2/Cyclin A:”, “0.05” for “0.1”, “20” for “50”

CDK4/Cyclin D1 = CDK4/Cyclin D1 (Homo sapiens, UniProt P11802); experiment: CDK4/Cyclin D1 kinase assay (Nanosyn, Caliper microfluidic); conditions: 12-point dose-response, ATP at Km (200 μM), 3 hr
CDK4/Cyclin D1, sequence (P11802 whole entry): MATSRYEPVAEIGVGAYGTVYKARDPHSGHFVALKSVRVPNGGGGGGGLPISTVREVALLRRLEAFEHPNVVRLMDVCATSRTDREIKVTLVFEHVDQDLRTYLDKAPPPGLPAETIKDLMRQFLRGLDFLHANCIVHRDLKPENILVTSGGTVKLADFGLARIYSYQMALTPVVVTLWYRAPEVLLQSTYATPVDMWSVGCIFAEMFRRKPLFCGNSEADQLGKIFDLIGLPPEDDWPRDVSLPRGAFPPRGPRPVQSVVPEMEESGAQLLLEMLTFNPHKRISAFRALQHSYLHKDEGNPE
CDK4/Cyclin D1, sequence (P24385 whole entry partner): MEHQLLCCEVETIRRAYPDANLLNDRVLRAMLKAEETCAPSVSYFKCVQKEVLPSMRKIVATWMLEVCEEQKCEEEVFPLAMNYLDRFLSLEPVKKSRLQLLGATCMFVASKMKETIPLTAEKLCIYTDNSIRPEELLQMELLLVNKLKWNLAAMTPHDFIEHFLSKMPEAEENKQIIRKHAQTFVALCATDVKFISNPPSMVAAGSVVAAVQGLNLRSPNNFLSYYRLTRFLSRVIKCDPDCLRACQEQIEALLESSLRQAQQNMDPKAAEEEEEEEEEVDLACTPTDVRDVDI
Procedure: as §1, with “CDK4/Cyclin D1:” for “CDK2/Cyclin A:”, “1” for “0.1”, “200” for “50”

CDK6/Cyclin D3 = CDK6/Cyclin D3 (Homo sapiens, UniProt Q00534); experiment: CDK6/Cyclin D3 kinase assay (Nanosyn, Caliper microfluidic); conditions: 12-point dose-response, ATP at Km (300 μM), 3 hr
CDK6/Cyclin D3, sequence (Q00534 whole entry): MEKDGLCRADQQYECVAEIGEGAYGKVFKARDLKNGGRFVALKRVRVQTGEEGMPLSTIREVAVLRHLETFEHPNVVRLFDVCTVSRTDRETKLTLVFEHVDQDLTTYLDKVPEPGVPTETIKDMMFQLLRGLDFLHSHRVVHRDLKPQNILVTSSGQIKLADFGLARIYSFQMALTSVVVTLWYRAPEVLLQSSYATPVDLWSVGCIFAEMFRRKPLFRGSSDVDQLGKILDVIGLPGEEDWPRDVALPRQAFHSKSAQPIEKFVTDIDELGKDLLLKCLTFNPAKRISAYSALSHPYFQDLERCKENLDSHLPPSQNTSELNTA
CDK6/Cyclin D3, sequence (P30281 whole entry partner): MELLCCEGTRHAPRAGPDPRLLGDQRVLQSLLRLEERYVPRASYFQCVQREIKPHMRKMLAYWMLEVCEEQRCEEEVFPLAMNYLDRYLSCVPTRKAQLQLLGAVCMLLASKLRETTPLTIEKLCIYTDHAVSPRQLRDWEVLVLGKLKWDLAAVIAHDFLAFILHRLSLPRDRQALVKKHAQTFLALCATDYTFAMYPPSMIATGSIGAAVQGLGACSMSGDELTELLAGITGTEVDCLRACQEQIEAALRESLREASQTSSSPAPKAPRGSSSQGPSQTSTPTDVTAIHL
Procedure: as §1, with “CDK6/Cyclin D3:” for “CDK2/Cyclin A:”, “2” for “0.1”, “300” for “50”

CDK5/p25 = CDK5/p25 (Homo sapiens, UniProt Q00535); experiment: CDK5/p25 kinase assay (Nanosyn, Caliper microfluidic); conditions: 12-point dose-response, ATP at Km (20 μM), 3 hr
CDK5/p25, sequence (Q00535 whole entry): as the sequence (Q00535 whole entry) above
CDK5/p25, sequence (Q15078 99-307 partner limits assumed): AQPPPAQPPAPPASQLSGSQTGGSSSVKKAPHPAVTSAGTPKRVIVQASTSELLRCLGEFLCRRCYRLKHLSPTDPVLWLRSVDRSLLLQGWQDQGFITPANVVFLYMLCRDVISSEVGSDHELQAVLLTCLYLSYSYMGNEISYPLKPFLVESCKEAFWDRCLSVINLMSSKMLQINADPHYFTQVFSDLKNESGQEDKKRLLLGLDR
Procedure: as §1, with “CDK5/p25:” for “CDK2/Cyclin A:”, “20” for “50”

Row | Structure (SMILES) | IC50 (CDK2/Cyclin A) [µM] | IC50 (CDK3/Cyclin E) [µM] | IC50 (CDK7/Cyclin H) [µM] | IC50 (CDK9/Cyclin T; Table 5) [µM] | IC50 (CDK2/Cyclin E) [µM] | IC50 (CDK1/Cyclin B1) [µM] | IC50 (CDK5/p35) [µM] | IC50 (CDK4/Cyclin D1; Table 4) [µM] | IC50 (CDK6/Cyclin D3) [µM] | IC50 (CDK5/p25) [µM] | IC50 (CDK9/Cyclin T; Table 6) [µM] | IC50 (CDK4/Cyclin D1; Table 6) [µM]
1 | O=C1CC[C@H](Nc2ncc3cc4n(c3n2)C2(CCCCC2)CNC4=O)CN1 [Compound 24, (S)-2′-((6-oxopiperidin-3-yl)amino)-7′,8′-dihydro-6′H-spiro[cyclohexane-1,9′-pyrazino[1′,2′:1,5]pyrrolo[2,3-d]pyrimidin]-6′-one] | 0.22 | 0.29 | 0.47 | 0.025 | 0.24 | 0.56 | 0.33 | 0.25 | 1 | 0.26 |  | 
2 | O=C(C[C@H]1CCCN1)Nc1ncc2cc3n(c2n1)C1(CCCCC1)CNC3=O [Compound 37, (R)-N-(6′-oxo-7′,8′-dihydro-6′H-spiro[cyclohexane-1,9′-pyrazino[1′,2′:1,5]pyrrolo[2,3-d]pyrimidin]-2′-yl)-2-(pyrrolidin-2-yl)acetamide] | 16 | 38 | 17 | 0.12 | 29 | 27 | 28 | 6.3 | 14 | 31 |  | 
3 | O=C1NCC2(CCCCC2)n2c1cc1cnc(N[C@H]3Cc4ccccc4NC3=O)nc12 [Compound 27, (S)-2′-((2-oxo-1,2,3,4-tetrahydroquinolin-3-yl)amino)-7′,8′-dihydro-6′H-spiro[cyclohexane-1,9′-pyrazino[1′,2′:1,5]pyrrolo[2,3-d]pyrimidin]-6′-one] | 8 | 26 | 14 | 0.56 | 11 | 8.9 | 10 | 0.27 | 0.97 | 9.6 |  | 
4 | O=C1NCC2(CCCCC2)n2c1cc1cnc(N[C@H]3CCCN[C@@H]3c3ccccc3)nc12 [Compound 10, 2′-(((2R,3S)-2-phenylpiperidin-3-yl)amino)-7′,8′-dihydro-6′H-spiro[cyclohexane-1,9′-pyrazino[1′,2′:1,5]pyrrolo[2,3-d]pyrimidin]-6′-one] | 3.6 | 16 | 1.8 | 0.08 | 5.7 | 8.8 | 9.7 | 0.036 | 1.2 | 11 |  | 
5 | O=C1NCC2(CCCCC2)n2c1cc1cnc(N[C@H]3CC[C@H](N4CCN(CC5CCCCC5)CC4)CC3)nc12 [Compound 61, 2′-(((1r,4r)-4-(4-(cyclohexylmethyl)piperazin-1-yl)cyclohexyl)amino)-7′,8′-dihydro-6′H-spiro[cyclohexane-1,9′-pyrazino[1′,2′:1,5]pyrrolo[2,3-d]pyrimidin]-6′-one] |  |  |  |  |  |  |  |  |  |  |  | 0.013
6 | O=C1NCC2(CCCCC2)n2c1cc1cnc(N[C@H]3CC[C@H](N4CCC(C(F)(F)F)CC4)CC3)nc12 [Compound 56, 2′-(((1r,4r)-4-(4-(trifluoromethyl)piperidin-1-yl)cyclohexyl)amino)-7′,8′-dihydro-6′H-spiro[cyclohexane-1,9′-pyrazino[1′,2′:1,5]pyrrolo[2,3-d]pyrimidin]-6′-one] |  |  |  |  |  |  |  |  |  |  | 0.004 | 0.027
7 | O=C1NCC2(CCCCC2)n2c1cc1cnc(N[C@H]3CC[C@H](N4CCN(c5ccc(F)cc5)CC4)CC3)nc12 [Compound 60, 2′-(((1r,4r)-4-(4-(4-fluorophenyl)piperazin-1-yl)cyclohexyl)amino)-7′,8′-dihydro-6′H-spiro[cyclohexane-1,9′-pyrazino[1′,2′:1,5]pyrrolo[2,3-d]pyrimidin]-6′-one] |  |  |  |  |  |  |  |  |  |  | 0.003 | 0.013
8 | CC(C)(C)N1CCN([C@H]2CC[C@H](Nc3ncc4cc5n(c4n3)C3(CCCCC3)CNC5=O)CC2)CC1 [Compound 57, 2′-(((1r,4r)-4-(4-(tert-butyl)piperazin-1-yl)cyclohexyl)amino)-7′,8′-dihydro-6′H-spiro[cyclohexane-1,9′-pyrazino[1′,2′:1,5]pyrrolo[2,3-d]pyrimidin]-6′-one] |  |  |  |  |  |  |  |  |  |  | 0.003 | 0.005

Further lines, results first:

Row | IC50 (CDK2/Cyclin A) [µM] | IC50 (CDK3/Cyclin E) [µM] | IC50 (CDK7/Cyclin H) [µM] | IC50 (CDK9/Cyclin T; Table 5) [µM] | IC50 (CDK2/Cyclin E) [µM] | IC50 (CDK1/Cyclin B1) [µM] | IC50 (CDK5/p35) [µM] | IC50 (CDK4/Cyclin D1; Table 4) [µM] | IC50 (CDK6/Cyclin D3) [µM] | IC50 (CDK5/p25) [µM] | IC50 (CDK9/Cyclin T; Table 6) [µM] | IC50 (CDK4/Cyclin D1; Table 6) [µM] | Structure (SMILES)
9 |  |  |  |  |  |  |  |  |  |  | 0.002 | 0.004 | O=C1NCC2(CCCCC2)n2c1cc1cnc(N[C@H]3CC[C@H](N4CCN(C5CCCC5)CC4)CC3)nc12 [Compound 59, 2′-(((1r,4r)-4-(4-cyclopentylpiperazin-1-yl)cyclohexyl)amino)-7′,8′-dihydro-6′H-spiro[cyclohexane-1,9′-pyrazino[1′,2′:1,5]pyrrolo[2,3-d]pyrimidin]-6′-one]
10 |  |  |  |  |  |  |  |  |  |  |  | 0.02 | O=C1NCC2(CCCCC2)n2c1cc1cnc(N[C@H]3CC[C@H](N4CCN(C(=O)C5CC5)CC4)CC3)nc12 [Compound 62, 2′-(((1r,4r)-4-(4-(cyclopropanecarbonyl)piperazin-1-yl)cyclohexyl)amino)-7′,8′-dihydro-6′H-spiro[cyclohexane-1,9′-pyrazino[1′,2′:1,5]pyrrolo[2,3-d]pyrimidin]-6′-one]
11 |  |  |  |  |  |  |  |  |  |  |  | 0.033 | O=C1NCC2(CCCCC2)n2c1cc1cnc(N[C@H]3CC[C@H](N4CCN(C5CC5)CC4)CC3)nc12 [Compound 58, 2′-(((1r,4r)-4-(4-cyclopropylpiperazin-1-yl)cyclohexyl)amino)-7′,8′-dihydro-6′H-spiro[cyclohexane-1,9′-pyrazino[1′,2′:1,5]pyrrolo[2,3-d]pyrimidin]-6′-one]
